Here are results for two molecules from ChEMBL document CHEMBL4800725 (2021).

Molecules are shown by their SMILES. Active and inactive are the calls of the source. The calls are words filed in the database; no cut-off is given here.

For experiment [1], the target named is T1, Pantetheinase (Homo sapiens, UniProt O95497).
T1 sequence (O95497 whole entry): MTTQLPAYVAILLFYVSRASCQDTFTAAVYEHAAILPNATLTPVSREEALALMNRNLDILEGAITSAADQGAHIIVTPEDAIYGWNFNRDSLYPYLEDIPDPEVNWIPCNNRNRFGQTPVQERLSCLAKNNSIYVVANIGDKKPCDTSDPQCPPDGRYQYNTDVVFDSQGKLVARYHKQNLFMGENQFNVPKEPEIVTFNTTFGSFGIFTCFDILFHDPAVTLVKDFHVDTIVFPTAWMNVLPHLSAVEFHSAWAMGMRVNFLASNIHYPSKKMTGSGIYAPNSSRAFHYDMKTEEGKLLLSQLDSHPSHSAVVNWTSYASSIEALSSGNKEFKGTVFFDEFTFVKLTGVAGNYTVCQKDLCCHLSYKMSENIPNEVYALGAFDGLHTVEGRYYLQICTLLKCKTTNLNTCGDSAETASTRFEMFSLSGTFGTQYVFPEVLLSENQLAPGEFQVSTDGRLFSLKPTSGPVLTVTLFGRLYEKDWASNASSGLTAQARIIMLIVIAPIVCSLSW
The experiment is described as follows: Human recombinant vanin-1 assay.

Experiment [2] has as its target T2, Pantetheinase (Mus musculus, UniProt Q9Z0K8).
T2 sequence (Q9Z0K8 whole entry): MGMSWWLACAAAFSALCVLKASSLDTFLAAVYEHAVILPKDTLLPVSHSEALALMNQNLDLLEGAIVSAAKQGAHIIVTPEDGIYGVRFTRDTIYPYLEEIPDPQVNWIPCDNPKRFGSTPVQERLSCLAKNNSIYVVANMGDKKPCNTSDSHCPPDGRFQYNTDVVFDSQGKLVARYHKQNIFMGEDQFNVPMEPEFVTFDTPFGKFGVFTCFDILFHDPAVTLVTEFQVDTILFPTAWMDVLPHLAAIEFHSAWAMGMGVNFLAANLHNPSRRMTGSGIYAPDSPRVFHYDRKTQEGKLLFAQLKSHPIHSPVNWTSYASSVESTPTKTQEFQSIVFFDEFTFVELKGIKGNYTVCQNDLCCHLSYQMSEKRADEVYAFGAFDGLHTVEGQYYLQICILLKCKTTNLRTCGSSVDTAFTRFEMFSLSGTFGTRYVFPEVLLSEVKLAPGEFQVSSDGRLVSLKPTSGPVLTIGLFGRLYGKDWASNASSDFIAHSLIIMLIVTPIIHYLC
The experiment is described as follows: Mouse recombinant vanin-1 assay.

For experiment [3], the target named is T1, Pantetheinase. The experiment is described as follows: Human plasma vanin-1 assay.
For experiment [4], the target named is T2, Pantetheinase. The experiment is described as follows: Mouse plasma vanin-1 assay.
A further experiment concerns the target T3, Vanin 1 (Rattus norvegicus, UniProt Q4KLZ0).
T3 sequence (Q4KLZ0 whole entry): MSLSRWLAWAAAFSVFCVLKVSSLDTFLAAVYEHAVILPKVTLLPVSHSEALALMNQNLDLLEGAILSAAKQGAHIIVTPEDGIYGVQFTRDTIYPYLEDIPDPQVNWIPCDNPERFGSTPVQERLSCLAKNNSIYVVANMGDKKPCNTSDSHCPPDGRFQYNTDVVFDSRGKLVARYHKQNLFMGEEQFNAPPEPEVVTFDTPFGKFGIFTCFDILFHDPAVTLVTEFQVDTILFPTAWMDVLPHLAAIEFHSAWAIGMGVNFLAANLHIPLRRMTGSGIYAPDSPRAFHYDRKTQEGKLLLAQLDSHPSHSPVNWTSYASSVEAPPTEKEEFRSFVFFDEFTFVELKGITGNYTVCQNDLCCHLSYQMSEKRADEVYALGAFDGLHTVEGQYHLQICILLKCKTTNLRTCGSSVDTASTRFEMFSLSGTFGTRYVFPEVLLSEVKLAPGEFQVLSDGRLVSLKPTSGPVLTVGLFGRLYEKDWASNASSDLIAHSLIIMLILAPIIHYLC

On to `Cc1nc(NCc2cnccn2)ncc1C(=O)N1CCC2(CCOCC2)C1` [PFI-653-N], for which the IC50 (as a rule, the midpoint of a concentration-inhibition curve) on Pantetheinase [1] was 17600 nM (not active); on Pantetheinase [2], 15000 nM (not active); against Pantetheinase [3] it was 3000 nM (not active); at Pantetheinase [4], 15000 nM (not active).

`O=C(c1cnc(NCc2cnccn2)nc1)N1CCC2(CCOCC2)C1` [PFI-653]: the IC50 at Pantetheinase [2] was 24.5 nM (active); on Pantetheinase [4], 53.4 nM (active); on Vanin 1, 12 nM (active).
